The EC50 is the midpoint of the concentration-response curve. Usually IC50 stands for the midpoint of a concentration-inhibition curve. Lower therefore signals greater potency in that assay.

The subject of test [1] is LPS-induced BAL neutrophils. Description: LPS-induced lung inflammation model, neutrophils in BAL fluid. Type of test: in vivo, rat. Particulars: for Reduction of total cells and neutrophilia in BAL fluid: 10 μg/kg i.t. The method, then:
The efficacy of the compound on neutrophils in BAL fluid is expressed as per cent inhibition of the full window (negative veh/veh controls vs. the positive veh/LPS controls): Inhibition (%) of LPS-induced BAL neutrophils by compound 2 was calculated using the following formula: [drawing 1] where A is the average in the group administered with vehicle and challenged with LPS; B is the average in the group administered with vehicle and challenged with saline; and C is the average in the group administered with test compound and challenged with LPS.
Animals in all efficacy studies were dosed intratracheally as described above in a buffered saline vehicle (pH 5) containing sodium chloride (8.5mg/ml), citric acid (0.28mg/ml) and sodium citrate (0.5mg/ml). The compound was dissolved in saline when given intravenously (0.9% NaCl) to the swivelled rats.
[…] Each rat was given LPS from the Pseudomona Aeruginosa bacteria (1µg/rat, 5µg/ml saline, Sigma-Aldrich, Sweden).
24 hours after the LPS challenge, rats were anaesthetized and exsanguinated via a cardiac incision. A tube was inserted and ligated to the trachea. The tube was connected to a syringe with 4ml PBS (without Ca^2+/Mg^2+) and a lavage of the whole lung was performed manually. The BAL fluid was collected individually in polyethylene tubes and kept on ice until further processed.
The BAL fluid was centrifuged and the supernatant separated from the cell pellet that was resuspended in 1.0ml of PBS. The total number of cells and cell differentia was counted in an automated cell counter and haematology analyzer (SYSMEX XT-1800iV, software for the rat BALF).

Test [2] relates to LPS-induced TNFα production in human PBMC. Description: LPS-induced TNFα production in primary human PBMC (hTNFα PBMC). The class given is cell-based. The method, then:
(§1) • Human A2a and A2b receptor pharmacology: Chinese hamster ovary CHO-K1 cells stably expressing human A2a and A2b receptors were used to determine substances agonistic potency and intrinsic activity. […] The signal corresponding to adenosine at 100 μmol/L was used to define 100% intrinsic activity. • Human A3 receptor pharmacology: A3 receptor Gi coupling was measured by GTPγ ^35[S] filter assay at serial dilutions of compound using membranes from Perkin-Elmer. The signal corresponding to the maximal response of NECA at 100 μmol/L was set to 100% intrinsic activity. • Lipopolysaccharide (LPS)-induced TNFα production in primary human peripheral blood mononuclear cells (hTNFα PBMC) and rat mononuclears (rTNFα splenocytes): Human PBMC and rat mononuclear spleen cells were incubated with serial dilutions of compound and stimulated with LPS.
Procedures and assays were run in R10 buffer (RPMI 1640 Medium supplemented with GlutaMAX™ and HEPES (GIBCO-BRL), 10% fetal calf serum, penicillin and streptomycin (each 5000IU/ml)). Human PBMC were purified from heparinised blood by Ficoll separation (Ficoll, Amersham Pharmacia Biotech AB, Cat: 17-1440-03, Lot: 312170) and rat mononuclear cells were collected after rat spleen perfusion. Both cell preparations were followed by hypotonic lysis of residual erythrocytes. Serial dilutions of compounds were pre-incubated with 200 000 cells/well (96-well plate) for 45min in 37 °C (190µl). Cells were stimulated by 10µl LPS (final concentration 0.5ng/ml human and 150ng/ml rat; SIGMA Cat: L-4516, Lot: 104K4036) for 18h at 37 °C. TNFα release was measured by ELISA (^TmR&D Systems plates) according to the manufacturer’s instructions in cell free supernatant.

A further test concerns the target A2a (Homo sapiens, UniProt P29274). In words: Selectivity panel of 98 targets in binding assays (Ricerca): A2a. More on the design: Ricerca (contract panel). Particulars: 10 μmol/L of compound; data on AstraZeneca file. As to the method: The medicinal chemistry synthetic optimization focused on the position C2 and N6 (Fig.2) with the aim to discover a compound with high A2a potency, high selectivity, low lipophilicity (logD), and high solubility. […] Selectivity of compound 2 was tested across 98 targets in binding assays (www.ricerca.com). The only identified significant hits (i.e., >50% effect at 10 μmol/L of compound 2) were A2a (∼100%) and A3 (∼84%) data on AstraZeneca file.

A further test concerns the target T1, A3 (Homo sapiens, UniProt P0DMS8).
T1 sequence (P0DMS8 1-318): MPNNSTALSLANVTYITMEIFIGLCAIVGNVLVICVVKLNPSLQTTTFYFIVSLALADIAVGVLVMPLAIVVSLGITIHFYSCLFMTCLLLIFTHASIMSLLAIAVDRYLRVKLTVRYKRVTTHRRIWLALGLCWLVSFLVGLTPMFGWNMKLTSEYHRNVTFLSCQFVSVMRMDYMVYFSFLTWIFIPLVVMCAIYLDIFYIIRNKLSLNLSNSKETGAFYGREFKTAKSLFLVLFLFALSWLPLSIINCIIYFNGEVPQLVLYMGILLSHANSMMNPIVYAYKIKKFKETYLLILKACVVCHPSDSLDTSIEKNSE
In words: Human A3 receptor pharmacology: GTPγ35[S] filter assay on membranes. The class given is biochemical. More on the design: purchased Perkin Elmer ES-012-M400UA. The settings on record: average (SD). As to the method:
as §1
A3 receptor Gi coupling was measured by GTPγ ^35[S] filter assay using membrane from Perkin Elmer (ES-012-M400UA). Membranes (7.5μg/ml final concentration) were incubated with substances in serial dilutions (50mM Hepes, pH 7.4, 5mM MgCl2, 100mM NaCl, 0.01% BSA, 100μM DTT and 25μM GDP) including 1nM of GTPγ ^35[S] (Perkin Elmer - NEG030H) for 2h in room temperature in the assay plate (Corning – 3365). […] After adding 50µl scintillant/well, sealed plates were counted. […]

Sequence of A2a (P29274 whole entry): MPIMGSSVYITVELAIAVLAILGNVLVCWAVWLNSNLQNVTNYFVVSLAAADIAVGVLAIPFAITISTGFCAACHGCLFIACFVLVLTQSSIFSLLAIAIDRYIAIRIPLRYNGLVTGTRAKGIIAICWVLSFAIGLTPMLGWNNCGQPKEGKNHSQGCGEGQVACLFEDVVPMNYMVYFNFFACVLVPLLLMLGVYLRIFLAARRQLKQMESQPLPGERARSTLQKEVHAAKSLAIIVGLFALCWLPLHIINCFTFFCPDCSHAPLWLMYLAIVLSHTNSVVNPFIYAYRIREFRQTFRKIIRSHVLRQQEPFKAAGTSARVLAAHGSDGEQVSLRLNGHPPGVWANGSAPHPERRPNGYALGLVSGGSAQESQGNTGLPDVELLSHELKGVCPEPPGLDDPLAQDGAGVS

Consider `CCNC(=O)[C@H]1O[C@@H](n2cnc3c(NC(CC)CC)nc(NCCNC(=O)Nc4cc[n+](C)cc4)nc32)[C@H](O)[C@@H]1O` [Compound 2, (2S,3S,4R,5R)-N-ethyl-5-[6-(1-ethylpropylamino)-2-[2-[(1-methylpyridin-1-ium-4-yl)carbamoylamino]ethylamino]purin-9-yl]-3,4-dihydroxy-tetrahydrofuran-2-carboxamide], for which the “Inhibition of recovered neutrophils in BAL fluid” value in test [1] (0.1 μg/kg i.t. single dose 24 h prior to LPS) came to 9%; in test [1] (1 μg/kg i.t. single dose 24 h prior to LPS), 17%; in test [1] (10 μg/kg i.t. for five consecutive days, LPS 24 h after last dose), 53%; in test [1] (10 μg/kg i.t. for three consecutive days, LPS 24 h after last dose), 39%; in test [1] (10 μg/kg i.t. single dose 24 h prior to LPS (n.s., P = 0.086)), 39%. The “Reduction of total cells and neutrophilia in BAL fluid” value in test [1] (36 and 24 h pre-treatment before LPS) is recorded as “significant reduction”; in test [1] (12 h pretreatment before LPS), “not significant”. Moreover, the “Maximum inhibition of neutrophil recruitment” value in test [1] (single i.t. dose of 10 μg/kg, rodents, previous dose-response studies) was 40–50%. Further, the EC50 in test [2] (Homo sapiens, PBMC, read-out: EC50, inhibition of LPS stimulated TNFα release in human PBMC) turned out to be 0.5 nM; on A3, 6600 nM. In test [2] (LPS-stimulated TNFα release, human PBMC, average (SD)), the IC50 amounted to 0.5 nM. Further, the Emax in test [2] (LPS-stimulated TNFα release, human PBMC, average (SD), read-out: Human TNFα PBMC Intrinsic activity) turned out to be 72.4%. The “Effect in binding assay, A2a” value on A2a is given as roughly 100%.

The values are drawn from article PMC4492750, “The discovery of a selective and potent A2a agonist with extended lung retention” (Pharmacology Research & Perspectives, 2015).
